Where two headings read alike, the source gives them in different places.
How the values were obtained:
[1] = target: Beta Secretase enzyme (BACE) (Homo sapiens, UniProt P56817); test: In vitro enzymatic BACE FRET assay; assay type: biochemical; conditions: read-out: BACE1 FRET assay IC50
Method in brief: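 Cleavage of a quenched 50 nM FRET peptide substrate, read as fluorescence (excitation 488 nm, […]) after 1 h and Tris quench to neutrality. Buffer: 0.05 M acetate pH 4.2 with 10% DMSO and 100 uM genapol. Inhibitor dilutions were pre-incubated 1 h with 0.2 nM enzyme.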

[2] = system: Aβ 40 in conditioned medium of cells stably expressing Amyloid Precursor Protein (APP); test: In vitro BACE cell-based assay (Aβ 40 sandwich ELISA); conditions: Homo sapiens, HEK293
Method in brief: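 Aβ40 in conditioned medium measured by pAb40/biotin-6E10 sandwich ELISA with time-resolved europium fluorescence, after 24 h exposure of stable APP cells to compounds (10-point series starting 100 μM or 10 μM; 0.1% DMSO). IC50 fitted from percent of control against concentration.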

[3] = target: Cathepsin D (Cat D) (Homo sapiens, UniProt P07339); test: In vitro enzymatic Cathepsin D (Cat D) FRET assay; assay type: biochemical
Cathepsin D (Cat D), sequence (P07339 65-412, species assumed): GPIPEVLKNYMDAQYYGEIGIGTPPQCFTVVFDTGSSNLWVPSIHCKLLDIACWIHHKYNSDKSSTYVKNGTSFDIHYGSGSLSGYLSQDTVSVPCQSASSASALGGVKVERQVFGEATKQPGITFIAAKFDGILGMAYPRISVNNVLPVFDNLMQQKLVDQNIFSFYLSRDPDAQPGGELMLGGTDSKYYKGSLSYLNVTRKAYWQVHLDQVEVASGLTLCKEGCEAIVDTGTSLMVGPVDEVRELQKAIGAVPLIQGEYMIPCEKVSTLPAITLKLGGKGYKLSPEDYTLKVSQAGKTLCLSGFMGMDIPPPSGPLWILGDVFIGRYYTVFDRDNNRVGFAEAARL
Method in brief: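 FRET peptide substrate (20 nM) is cleaved by CHO-derived recombinant enzyme (9 nM) for 1 h after a 1 h inhibitor pre-incubation, at pH 3.5 in citrate buffer with 5 mM CHAPS and 10% DMSO. Tris addition ends the reaction; fluorescence measured at 500 nm excitation, 580 nm emission.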

[4] = average IC50, in vitro enzymatic BACE FRET assay
[5] = average IC50, HEK cell assay, Aβ 40 readout
[6] = Cathepsin D FRET assay, read-out: CatD IC50
[7] = text summary referring to data in Table 2

Beta Secretase enzyme (BACE), sequence (P56817 46-501): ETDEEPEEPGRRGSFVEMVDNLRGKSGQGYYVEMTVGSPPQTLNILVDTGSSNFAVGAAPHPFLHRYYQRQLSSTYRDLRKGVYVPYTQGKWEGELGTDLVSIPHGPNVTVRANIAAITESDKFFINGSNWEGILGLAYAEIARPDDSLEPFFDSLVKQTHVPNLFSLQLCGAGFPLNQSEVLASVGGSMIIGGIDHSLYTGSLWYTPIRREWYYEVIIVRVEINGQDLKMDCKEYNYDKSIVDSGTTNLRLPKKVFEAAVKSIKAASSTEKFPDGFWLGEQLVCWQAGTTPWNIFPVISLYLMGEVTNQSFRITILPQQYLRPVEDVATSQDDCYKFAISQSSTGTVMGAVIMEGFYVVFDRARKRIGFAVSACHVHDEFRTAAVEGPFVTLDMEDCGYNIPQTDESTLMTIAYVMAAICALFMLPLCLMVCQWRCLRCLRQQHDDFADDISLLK

SMILES	IC50 [1, 4]	IC50 [2, 5]	IC50 [3, 6]	IC50 ([1]; average IC50)	IC50 ([2]; HEK cell, average IC50)	IC50 ([3]; read-out: CatD IC50)	IC50 [3, 7]	IC50 ([2]; HEK cells, average IC50)
Cc1cc(OC(F)F)cnc1C(=O)Nc1ccc2c(c1)[C@@]1(C)N=C(N)C(C)(C)S(=O)(=O)[C@]1(F)CCO2 [Example 95, N-((4aR,11bR)-2-amino-4a-fluoro-3,3,11b-trimethyl-4,4-dioxido-4a,5,6,11b-tetrahydro-3H-[1]benzoxepino[4,5-b][1,4]thiazin-10-yl)-5-(difluoromethoxy)-3-methyl-2-pyridinecarboxamide]	0.014 µM	0.061 µM	248 µM	–	–	–	–	–
Cc1cc(Cl)cnc1C(=O)Nc1ccc2c(c1)[C@]1(C)N=C(N)C(C)(C)S(=O)(=O)[C@H]1CCO2 [Example 17, N-((4aS,11bS)-2-amino-3,3,11b-trimethyl-4,4-dioxido-4a,5,6,11b-tetrahydro-3H-benzo[6,7]oxepino[4,5-b][1,4]thiazin-10-yl)-5-chloro-3-methylpicolinamide]	–	–	–	1.46 µM	0.833 µM	> 400 µM	–	–
CC#C[C@H](C)Oc1cnc(C(=O)Nc2ccc3c(c2)[C@@]2(C)N=C(N)C(C)(C)S(=O)(=O)[C@@H]2CCO3)cn1 [Example 15, N-((4aR,11bR)-2-amino-3,3,11b-trimethyl-4,4-dioxido-4a,5,6,11b-tetrahydro-3H-[1]benzoxepino[4,5-b][1,4]thiazin-10-yl)-5-(((1S)-1-methyl-2-butyn-1-yl)oxy)-2-pyrazinecarboxamide]	–	–	–	0.003 µM	0.0005 µM	1970 µM	> 1200 µM	–
CC1(C)C(N)=N[C@]2(C)c3cc(NC(=O)c4ccc(OCC#N)cn4)ccc3OCC[C@H]2S1(=O)=O [Example 126, N-((4aR,11bR)-2-amino-3,3,11b-trimethyl-4,4-dioxido-4a,5,6,11b-tetrahydro-3H-[1]benzoxepino[4,5-b][1,4]thiazin-10-yl)-5-(cyanomethoxy)-2-pyridinecarboxamide]	0.017 µM	0.034 µM	> 1.65 µM	–	–	–	–	–
Cc1cc(C(F)F)cnc1C(=O)Nc1ccc2c(c1)[C@@]1(C)N=C(N)C(C)(C)S(=O)(=O)[C@H]1CCC2 [Example 35, N-((4aS,11bR)-2-amino-3,3,11b-trimethyl-4,4-dioxido-3,4a,5,6,7,11b-hexahydrobenzo[3,4]cyclohepta[1,2-b][1,4]thiazin-10-yl)-5-(difluoromethyl)-3-methyl-2-pyridinecarboxamide]	–	–	–	0.049 µM	0.023 µM	> 400 µM	–	–
Cc1cc(Cl)cnc1C(=O)Nc1ccc2c(c1)[C@]1(C)N=C(N)C(C)(C)S(=O)(=O)[C@H]1CCO2 (racemic) [Example 4, N-((4aRS,11bRS)-2-amino-3,3,11b-trimethyl-4,4-dioxido-4a,5,6,11b-tetrahydro-3H-benzo[6,7]oxepino[4,5-b][1,4]thiazin-10-yl)-5-chloro-3-methylpicolinamide]	–	–	–	0.004 µM	0.01 µM	> 100 µM	–	–
Cc1cc(COc2cnc(C(=O)Nc3ccc4c(c3)[C@@]3(C)N=C(N)C(C)(C)S(=O)(=O)[C@@H]3C[C@H](C)O4)cn2)on1 [Example 78, N-((4aR,6S,11bR)-2-amino-3,3,6,11b-tetramethyl-4,4-dioxido-4a,5,6,11b-tetrahydro-3H-[1]benzoxepino[4,5-b][1,4]thiazin-10-yl)-5-((3-methyl-5-isoxazolyl)methoxy)-2-pyrazinecarboxamide]	–	–	–	0.007 µM	0.026 µM	407 µM	–	–
CC1(C)C(N)=N[C@]2(CF)c3cc(NC(=O)c4ccc(OC(F)F)cn4)ccc3OCC[C@@H]2S1(=O)=O [Example 122, N-((4aS,11bS)-2-amino-11b-(fluoromethyl)-3,3-dimethyl-4,4-dioxido-4a,5,6,11b-tetrahydro-3H-[1]benzoxepino[4,5-b][1,4]thiazin-10-yl)-5-(difluoromethoxy)-2-pyridinecarboxamide]	0.011 µM	0.013 µM	1030 µM	–	–	–	–	–
CC#CCOc1cnc(C(=O)Nc2ccc3c(c2)[C@@]2(C)N=C(N)C(C)(C)S(=O)(=O)[C@H]2CC(C)(C)O3)cn1 [Example 102, N-((4aS,11bR)-2-amino-3,3,6,6,11b-pentamethyl-4,4-dioxido-4a,5,6,11b-tetrahydro-3H-[1]benzoxepino[4,5-b][1,4]thiazin-10-yl)-5-(2-butyn-1-yloxy)-2-pyrazinecarboxamide]	0.001 µM	0.002 µM	284 µM	–	–	–	–	–
CC1(C)C(N)=N[C@]2(C)c3cc(NC(=O)c4cc5ccccc5cn4)ccc3OCC[C@H]2S1(=O)=O [Example 30, N-((4aR,11bR)-2-amino-3,3,11b-trimethyl-4,4-dioxido-4a,5,6,11b-tetrahydro-3H-[1]benzoxepino[4,5-b][1,4]thiazin-10-yl)-3-isoquinolinecarboxamide]	–	–	–	0.084 µM	0.058 µM	1080 µM	> 1200 µM	–
CC#CC(C)Oc1cnc(C(=O)Nc2ccc3c(c2)[C@@]2(C)N=C(N)C(C)(C)S(=O)(=O)[C@@H]2CCO3)cn1 (mixture of isomers) [Example 14, N-((4aR,11bR)-2-amino-3,3,11b-trimethyl-4,4-dioxido-4a,5,6,11b-tetrahydro-3H-[1]benzoxepino[4,5-b][1,4]thiazin-10-yl)-5-(((1R)-1-methyl-2-butyn-1-yl)oxy)-2-pyrazinecarboxamide,N-((4aR,11bR)-2-amino-3,3,11b-trimethyl-4,4-dioxido-4a,5,6,11b-tetrahydro-3H-[1]benzoxepino[4,5-b][1,4]thiazin-10-yl)-5-(((1S)-1-methyl-2-butyn-1-yl)oxy)-2-pyrazinecarboxamide]	–	–	–	0.005 µM	0.001 µM	689 µM	–	–
CC1(C)C(N)=N[C@]2(C)c3cc(NC(=O)c4ccc(OCC5CC5)cn4)ccc3OCC[C@H]2S1(=O)=O [Example 175, N-((4aR,11bR)-2-amino-3,3,11b-trimethyl-4,4-dioxido-4a,5,6,11b-tetrahydro-3H-[1]benzoxepino[4,5-b][1,4]thiazin-10-yl)-5-(cyclopropylmethoxy)-2-pyridinecarboxamide]	–	–	–	0.009 µM	–	1510 µM	–	0.017 µM
CC1(C)C(N)=N[C@]2(C)c3cc(Nc4nccc5cc(C#N)cnc45)ccc3OCC[C@H]2S1(=O)=O [Example 168, 8-(((4aR,11bR)-2-amino-3,3,11b-trimethyl-4,4-dioxido-4a,5,6,11b-tetrahydro-3H-[1]benzoxepino[4,5-b][1,4]thiazin-10-yl)amino)-1,7-naphthyridine-3-carbonitrile]	–	–	–	0.002 µM	–	> 44.4 µM	–	0.003 µM
CC1(C)C(N)=N[C@]2(C)c3cc(NC(=O)c4cnc(OCC(F)(F)F)cn4)ccc3OCC[C@H]2S1(=O)=O [Example 169, N-((4aR,11bR)-2-amino-3,3,11b-trimethyl-4,4-dioxido-4a,5,6,11b-tetrahydro-3H-[1]benzoxepino[4,5-b][1,4]thiazin-10-yl)-5-(2,2,2-trifluoroethoxy)-2-pyrazinecarboxamide]	–	–	–	0.001 µM	–	1620 µM	–	0.004 µM
C[C@H]1C[C@@H]2[C@](C)(N=C(N)C(C)(C)S2(=O)=O)c2cc(NC(=O)c3ncc(C(F)(F)F)cc3Cl)ccc2O1 [Example 73, N-((4aR,6S,11bR)-2-amino-3,3,6,11b-tetramethyl-4,4-dioxido-4a,5,6,11b-tetrahydro-3H-[1]benzoxepino[4,5-b][1,4]thiazin-10-yl)-3-chloro-5-(trifluoromethyl)-2-pyridinecarboxamide]	–	–	–	0.011 µM	0.004 µM	1390 µM	> 1200 µM	–
